The structures appear in SMILES notation.

Data set [1] deals with patients treated for an episode of PSVT. Conditions: intravenous; cited from earlier work.
Data set [2] relates to patients suffering from an episode of PSVT. The data set is described as follows: Nasal administration of acetate salt solutions to patients in a PSVT episode, monitored by electrocardiography. Type of data set: in vivo, human. The text has this:
A common method of measuring the effectiveness of a therapeutic agent in terminating an episode of a cardiac arrhythmia, such as PSVT, is by analysis of an electrocardiogram (ECG) recorded from a patient experiencing such an episode. […] One of the key features of healthy cardiac signaling is a temporal delay between the initiation of atrial and ventricular action potentials. A delay between signaling in the atria and ventricles is necessary for efficient pumping of blood. Signaling in the atria must proceed first, such that all blood in the atrial chambers is expelled into the ventricles before the ventricles contract. […]
It has been shown that an increase of at least 10% in the PR segment of an […] recorded from a patient suffering from a cardiac arrhythmia correlates well with a termination of the PSVT episode. […] The solutions that were administered to patients contained varying concentrations of the acetate salt of compound I. During the study, a solution containing a particular concentration of the acetate salt of compound I was administered to a patient experiencing an episode of PSVT, and the patient was monitored by electrocardiography throughout the duration of the experiment. […]

The nature of data set [3]: Solubility in aqueous solution. It is filed as physicochemical. Particulars: acid addition salts of compound I.
Data set [4] concerns patients suffering from an episode of PSVT. Conditions: therapeutic dose, intravenous; cited from earlier work.
The next data set relates to nasal epithelium. Briefly: Permeation through the nasal epithelium with EDTA. Particulars: use of EDTA in the formulation. The text has this: The nasal vestibule, which accounts for approximately 3-4% of the surface area of the nasal cavity, lacks tight junctions altogether and is thus not affected by calcium chelating agents. […] As such, it has been postulated that the nasal epithelium is not susceptible to permeability modulation by EDTA (Aungst, et al., Pharma. Res., 1998, 5:305-308). Additionally, the ability of EDTA to increase permeation of a compound through the nasal epithelium is attenuated as the molecular weight of the compound increases (Nakanishi, et al., Chem. Pharm. Bull., 1984, 32:1628-1632).

Data set [5] in a line: Homogeneity (no observable precipitation) of concentrated aqueous solutions on storage. Type of data set: physicochemical.
Where [6] appears, read: 300 mg/mL, 1 eq methanesulfonic acid, 10 mM sodium acetate, 5 mM disodium EDTA, pH 4.5.
[7] abbreviates: 350 mg/mL, 1 eq acetic acid, pH 4.5 with 3.6 M sulfuric acid.
Setting [8] is: 400 mg/mL, 1 eq methanesulfonic acid, 10 mM sodium acetate, 5 mM disodium EDTA, pH 4.5.

As to `OC[C@H]1O[C@@H](n2cnc3c(N[C@@H]4CCOC4)ncnc32)[C@H](O)[C@@H]1O` [tecadenoson], in data set [1], the “average PR prolongation” value was 8.5%, the “efficacy of PSVT termination” value is “approximately 86%” and the “patients treated who experienced relief from an episode of PSVT” value is 32 out of 37.
As for `CC(=O)O.COC(=O)c1cccc(CCN(C)CCC[C@@](C#N)(c2ccc(OC)c(OC)c2)C(C)C)c1` [acetate salt of compound I], the “median PR prolongation” value in data set [2] (solutions containing 60 mg or greater of compound I, patients experiencing a PSVT episode, ECG) is “greater than 10%”. For the same compound, the “solubility in aqueous solution” value in data set [3] is given as “high solubility”.
For the compound `COc1ccc(CCN(C)CCCC(C#N)(c2ccc(OC)c(OC)c2)C(C)C)cc1OC` (stereo not shown) [verapamil, 2-(3,4-dimethoxyphenyl)-5-[2-(3,4-dimethoxyphenyl)ethyl-methylamino]-2-propan-2-ylpentanenitrile], in data set [4], the PR prolongation entry is recorded as “at least 10%” and the “efficacy for terminating the PSVT episode” value is given as 85-90%.
Take `COC(=O)c1cccc(CCN(C)CCCC(C#N)(c2ccc(OC)c(OC)c2)C(C)C)c1` (stereo not shown) [compound I, methyl 3-(2-((4-cyano-4-(3,4-dimethoxyphenyl)-5-methylhexyl)(methyl)amino)ethyl)benzoate]: the “permeation through the nasal epithelium” value with nasal epithelium is “increased the permeation”. Also, in data set [2] (dosage containing 60 mg of compound I), the “effectiveness in terminating an episode of PSVT” value is recorded as “therapeutically effective”. Moreover, the “homogeneity at 2-5° C.” value in data set [5] (setting [6]) and in data set [5] (setting [8]) was “remains homogeneous” throughout. The “homogeneity at room temperature” value in data set [5] (setting [6]) is “remains homogeneous”; in data set [5] (setting [7]) it was “remains homogeneous”; in data set [5] (setting [8]), “remains homogeneous”; in data set [5] (highly concentrated solutions, 0.5-1.5 molar equivalents of acetic acid or methanesulfonic acid), “remain homogeneous”; in data set [5] (over 500 mg/mL, 1 eq acetic acid, pH 4.5 with 3.6 M sulfuric acid), “remains homogeneous”. The “time solution remains homogeneous at 0° C.” value in data set [5] (setting [6]) and in data set [5] (setting [8]) was “at least 7 days” each time. Further, the “time solution remains homogeneous at 10° C.” value in data set [5] (setting [7]) is “at least 3 days”.

Values taken from patent publication US10117848B2, “Highly water-soluble salts of a short acting phenylalkylamine calcium channel blocker and uses thereof” (Milestone Pharmaceuticals Inc., priority 2015, dated 2018).
